For the assay, the target named is T1, mouse PPARγ ligand-binding site (Mus musculus, UniProt P37238).
T1 construct: expressed in transfected cells; host or cells: CV-1 cells (African green monkey kidney)
T1 sequence (P37238 174-475 isoform P37238-2): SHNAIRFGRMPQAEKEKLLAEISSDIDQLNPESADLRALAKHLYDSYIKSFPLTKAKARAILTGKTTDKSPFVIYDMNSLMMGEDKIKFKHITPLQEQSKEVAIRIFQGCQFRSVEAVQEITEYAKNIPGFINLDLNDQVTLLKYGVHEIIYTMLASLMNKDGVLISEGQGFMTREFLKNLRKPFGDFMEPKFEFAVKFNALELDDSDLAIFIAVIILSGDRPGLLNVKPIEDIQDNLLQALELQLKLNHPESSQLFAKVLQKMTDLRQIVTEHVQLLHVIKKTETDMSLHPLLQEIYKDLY
Kind of assay: Measurement of PPARγ ligand activity (GAL4 chimera luciferase reporter in CV-1 cells). The conditions noted are these: for PPARγ ligand activity: CV-1 cells, 24 hours, specific activity relative to untreated control (DMSO) = 1.00; for PPARγ ligand activity compared with positive control troglitazone (in words): compared with 0.5 μM troglitazone. It counts as cell-based. How it is done:
CV-1 cells (cultured cells derived from the kidney of a male African green monkey) were inoculated on a 96-well culture plate in a concentration of 6×10^3 cells/well and incubated at 37° C. in 5% CO2 for 24 hours. The medium used was DMEM (Dulbecco's Modified Eagle Medium: GIBCO) containing 10% FBS (fetal bovine serum), 10 ml/L penicillin and streptomycin solution (containing 5000 IU/ml and 5,000 μg/ml, respectively: GIBCO) and 37 mg/L ascorbic acid (Wako Pure Chemical Industries, Ltd.). […] 4xUASg-luc is a reporter plasmid comprising four GAL4 response sequences (UASg) integrated into a region upstream of a luciferase gene. At about 24 hours after transfection, the medium was exchanged with a sample-containing medium, and the cells were cultured for 24 hours (n=4). The sample-containing medium was prepared by dissolving a sample in dimethyl sulfoxide (DMSO) in an amount of 1/1000 based on the medium, while for the untreated control, DMSO in an amount of 1/1000 based on the medium was used in place of the sample. After the cells were washed with a Ca- and Mg-containing phosphate buffered physiological saline (PBS+), LucLite (Packard) was added thereto, and the intensity of luciferase luminescence was measured with a TopCount microplate scintillation/luminescence counter (Packard).
As the control group, pM (plasmid from which the PPARγ ligand-binding site gene was removed) was measured in place of pM-mPPARγ in the same manner as for the measurement group. For each sample, the ratio (measurement group/control group) of the average luminescence intensity of the measurement group (n=4) to that of the control group was calculated, and the specific activity relative to the activity of the untreated control was regarded as the PPARγ ligand activity of the sample.
In general terms: Reporter assays use an easily measured gene product as a stand-in for the process of interest.

Structures are written as SMILES.

Regarding `COc1c(CC=C(C)C)c(O)cc2oc(=O)c(-c3ccc(O)cc3O)cc12` [Compound 1, Glycycoumarin], the PPARγ ligand activity runs as follows: (added concentration 2 μg/ml) 2.03; (added concentration 5 μg/ml) 2.79; (added concentration 10 μg/ml) 3.82.
The matching figures for `CC(C)=CCc1cc(-c2coc3c(CC=C(C)C)c(O)cc(O)c3c2=O)cc(O)c1O` [Compound 3, Glyurallin B]: 1.28, 1.96 and 2.73.
In the case of `COc1cc2c(c(OC)c1CC=C(C)C)C=C(c1ccc(O)cc1O)CO2` [Compound 4, 3-(2′,4′-dihydroxyphenyl)-6-(3″,3″-dimethylallyl)-5,7-dimethoxy-2H-chromene], the PPARγ ligand activity is, setting by setting: (added concentration 2 μg/ml) 2.95; (added concentration 5 μg/ml) 3.72; (added concentration 10 μg/ml) 4.00.
Taken in the same sequence, the figures for `COc1cc(O)ccc1/C=C/C(=O)c1ccc(O)cc1` [Compound 5, Echinatin] were 1.45, 2.35 and 2.49.
`CC(C)=CCc1cc(-c2oc3cc(O)cc(O)c3c(=O)c2O)ccc1O` [Compound 6, Isolicoflavonol]: the PPARγ ligand activity runs as follows: (added concentration 2 μg/ml) 1.73; (added concentration 5 μg/ml) 2.50; (added concentration 10 μg/ml) 3.82.
Taken in the same sequence, the figures for `COc1c2c(cc(O)c1CC=C(C)C)OCC(c1ccc(O)cc1O)=C2` [Compound 7, Dehydroglyasperin C] were 2.90, 3.73 and 4.41.
Taken in the same sequence, the figures for `COc1cc2c(c(O)c1CC=C(C)C)C(=O)C(c1ccc(O)cc1O)CO2` (centres unmarked) [Compound 8, Glyasperin B] were 2.60, 3.53 and 3.02.
For the compound `COc1cc(O)cc2c1C(=O)C(c1cc(O)c3c(c1)C=CC(C)(C)O3)CO2` (centres unmarked) [Compound 9, Glycyrrhisoflavanone], the PPARγ ligand activity is on record as 2.01 (added concentration 2 μg/ml), 3.45 (added concentration 5 μg/ml) and 4.68 (added concentration 10 μg/ml).
For `CC(C)=CCc1c(O)cc(O)c2c(=O)c(-c3ccc(O)cc3)coc12` [Compound 10, Lupiwighteone], the PPARγ ligand activity reads like this: (added concentration 2 μg/ml) 1.67; (added concentration 5 μg/ml) 2.53; (added concentration 10 μg/ml) 3.75.
Consider `COc1cc2c(c(OC)c1CC=C(C)C)CC(c1ccc(O)cc1O)CO2` (centres unmarked) [Compound 11, Glyasperin D], for which the PPARγ ligand activity is given as 3.22 (added concentration 2 μg/ml), 3.28 (added concentration 5 μg/ml) and 4.06 (added concentration 10 μg/ml).
With `CC1(C)C=Cc2cc(-c3coc4cc(O)cc(O)c4c3=O)cc(O)c2O1` [Compound 12, Semilicoisoflavone B], the PPARγ ligand activity was found to be 1.86 (added concentration 2 μg/ml), 2.66 (added concentration 5 μg/ml) and 3.15 (added concentration 10 μg/ml).
With `O=C(/C=C/c1ccc(O)cc1)c1ccc(O)cc1O` [Compound 13, Isoliquiritigenin], the PPARγ ligand activity reads like this: (added concentration 2 μg/ml) 1.47; (added concentration 5 μg/ml) 2.71; (added concentration 10 μg/ml) 3.39.
For `COc1c(-c2ccc(O)cc2)oc2cc(O)cc(O)c2c1=O` [Compound 14, Kaempferol3-O-methylester], the PPARγ ligand activity runs as follows: (added concentration 2 μg/ml) 1.86; (added concentration 5 μg/ml) 2.37; (added concentration 10 μg/ml) 3.47.
The matching figures for `CC(C)=CCc1c(O)cc2oc(-c3ccc(O)cc3)c(O)c(=O)c2c1O` [Compound 15, Licoflavonol]: 1.44, 2.27 and 4.07.
The matching figures for `COc1c(-c2ccc(O)cc2)oc2cc(O)c(CC=C(C)C)c(O)c2c1=O` [Compound 16, Topazolin]: 2.56, 3.64 and 5.84.
The matching figures for `CC(C)=CCc1cc(-c2coc3cc(O)cc(O)c3c2=O)cc(O)c1O` [Compound 17, Glycyrrhisoflavone]: 1.78, 3.05 and 3.20.
Take `CC1(C)C=Cc2c(ccc3c2OC[C@@H](c2ccc(O)cc2O)C3)O1` [Compound 18, Glabridin]: the PPARγ ligand activity came to 1.64 (added concentration 2 μg/ml), 2.15 (added concentration 5 μg/ml) and 1.98 (added concentration 10 μg/ml).
The matching figures for `CC1(C)C=Cc2c(O)ccc(C3=Cc4ccc(O)cc4OC3)c2O1` [Compound 19, Glabrene]: 1.78, 3.44 and 2.89.
`CC1(C)C=Cc2c(ccc(C3COc4c(ccc5c4C=CC(C)(C)O5)C3)c2O)O1` (centres unmarked) [Compound 20, Hispaglabridin B]: the “PPARγ ligand activity compared with positive control troglitazone (in words)” value is listed as “slightly weaker than that of a positive control containing 0.5 μM troglitazone”. Moreover, the PPARγ ligand activity (added concentration 2 μg/ml) is 1.04. This compound also registered a PPARγ ligand activity (added concentration 5 μg/ml) of 1.45. Moreover, the PPARγ ligand activity (added concentration 10 μg/ml) was determined as 1.94.
With `COc1ccc(C2COc3c(ccc4c3C=CC(C)(C)O4)C2)c(O)c1` (centres unmarked) [Compound 21, 4′-O-Methylglabridin], the PPARγ ligand activity (added concentration 2 μg/ml) amounted to 1.25, the PPARγ ligand activity (added concentration 5 μg/ml) was determined as 1.55 and the PPARγ ligand activity (added concentration 10 μg/ml) amounted to 2.13.
Taken in the same sequence, the figures for `COc1ccc(C2COc3c(ccc4c3C=CC(C)(C)O4)C2)c(O)c1O` (centres unmarked) [Compound 22, 3′-Hydroxyl-4′-O-methylglabridin] were 1.61, 2.46 and 1.69.
The matching figures for `CC(C)=CCc1cc([C@@H]2CC(=O)c3ccc(O)c(CC=C(C)C)c3O2)ccc1O` [Compound 23, Glabrol]: 1.85, 3.48 and 3.74.
The matching figures for `C=CC(C)(C)c1cc(/C=C/C(=O)c2ccc(O)cc2)c(OC)cc1O` [Compound 24, Licochalcone A]: 4.02, 4.14 and 4.16.
Turning to `COc1c(/C=C/C(=O)c2ccc(O)cc2)ccc(O)c1O` [Compound 25, Licochalcone B], the “PPARγ ligand activity compared with positive control troglitazone (in words)” value is “slightly weaker than that of a positive control containing 0.5 μM troglitazone”. This compound also gave a PPARγ ligand activity (added concentration 2 μg/ml) of 1.27. The compound further registered a PPARγ ligand activity (added concentration 5 μg/ml) of 1.93. Further, the PPARγ ligand activity (added concentration 10 μg/ml) stood at 1.61.
Turning to `COc1c(/C=C/C(=O)c2ccc(O)cc2)ccc(O)c1CC=C(C)C` [Compound 26, Licochalcone C], the PPARγ ligand activity is listed as 1.84 (added concentration 2 μg/ml), 2.20 (added concentration 5 μg/ml) and 3.71 (added concentration 10 μg/ml).
With `CC(C)=CCc1cc(C(=O)CC(=O)c2cc(CC=C(C)C)c(O)cc2O)ccc1O` [Compound 27, Glycyrdione A], the PPARγ ligand activity came out at 1.44 (added concentration 2 μg/ml), 2.49 (added concentration 5 μg/ml) and 3.05 (added concentration 10 μg/ml).
